Results as given in patent publication US20170166558A1, “O-GLCNAC TRANSFERASE (OGT) INHIBITORS AND USES THEREOF” (President and Fellows of Harvard College, priority 2014, published 2017).
Values joined by “and” are separate entries in the source; they are usually repeats but may differ in a detail not shown here. Identical values can stand only once.

How the values were obtained:
sOGT = target: T1, sOGT (Homo sapiens, UniProt O15294); experiment: Fluorescence polarization displacement screen with fluorescein-linked UDP-GlcNAc analog; type: binding; conditions: fluorescence displacement in vitro assay; for IC50: read-out: IC50 (sOGT inhibition)
T1 sequence (O15294 1-665 isoform O15294-4): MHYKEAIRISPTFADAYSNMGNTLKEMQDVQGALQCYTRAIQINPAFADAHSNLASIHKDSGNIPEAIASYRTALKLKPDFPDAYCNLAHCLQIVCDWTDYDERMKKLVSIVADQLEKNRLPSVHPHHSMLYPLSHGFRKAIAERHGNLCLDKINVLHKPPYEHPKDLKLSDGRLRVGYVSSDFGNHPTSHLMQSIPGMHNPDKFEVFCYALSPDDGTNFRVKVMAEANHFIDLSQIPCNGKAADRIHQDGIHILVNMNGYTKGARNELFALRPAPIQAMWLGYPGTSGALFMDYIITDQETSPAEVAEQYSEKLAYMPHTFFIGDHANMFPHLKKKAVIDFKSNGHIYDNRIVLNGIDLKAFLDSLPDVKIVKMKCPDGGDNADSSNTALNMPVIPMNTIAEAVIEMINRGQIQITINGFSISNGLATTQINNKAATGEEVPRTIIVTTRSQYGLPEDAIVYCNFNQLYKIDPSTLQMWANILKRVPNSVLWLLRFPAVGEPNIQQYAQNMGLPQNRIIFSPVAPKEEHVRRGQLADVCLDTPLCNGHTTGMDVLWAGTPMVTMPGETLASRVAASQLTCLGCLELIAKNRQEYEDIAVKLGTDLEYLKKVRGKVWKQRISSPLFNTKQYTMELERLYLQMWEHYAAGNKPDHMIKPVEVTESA
Method: About 1000 compound library was serially diluted in DMSO from the 5 mg/ml plates fivefold 3 times, such that 4 different concentrations of compounds were prepared. Compound libraries of the 4 concentrations in duplicated were then transferred to the assay plates using a 100 nL pin array, resulting in a final compound concentration of 25 μg/mL or ˜70 μM at the highest of the four concentrations, assuming an average compound MW of 350. Using a Perkin Elmer Envision® microplate reader, the sample was excited at 480 nm in the vertical plane, and simultaneous emission intensity (535 nm) of the vertical and horizontal polarization planes was measured. The polarization was calculated using the following equation:eq4: mP=1000*(V−G*H)/(V+G*H)where: mP=millipolarization units, V=intensity of vertically polarized emission (RFU), H=intensity of horizontally polarized emission (RFU), and G=gain.
Compounds were screened at […] different concentrations in a fluorescence displacement assay (FIG. 13A)^27. Using the known binding constant for the substrate analog, the dose-response data allowed us to estimate binding affinities (Ki values) for the hits. […] Various analogs were prepared based on a modular assembly (as in FIG. 13B), and OGT inhibition was assessed both in vitro and in cells.

ncOGT = target: T2, ncOGT (Homo sapiens, UniProt O15294); experiment: Radiometric capture assay with Nup62 acceptor and UDP-14C-GlcNAc; type: biochemical
T2 construct: full length human OGT (ncOGT); made in house
T2 sequence (O15294 1-1046): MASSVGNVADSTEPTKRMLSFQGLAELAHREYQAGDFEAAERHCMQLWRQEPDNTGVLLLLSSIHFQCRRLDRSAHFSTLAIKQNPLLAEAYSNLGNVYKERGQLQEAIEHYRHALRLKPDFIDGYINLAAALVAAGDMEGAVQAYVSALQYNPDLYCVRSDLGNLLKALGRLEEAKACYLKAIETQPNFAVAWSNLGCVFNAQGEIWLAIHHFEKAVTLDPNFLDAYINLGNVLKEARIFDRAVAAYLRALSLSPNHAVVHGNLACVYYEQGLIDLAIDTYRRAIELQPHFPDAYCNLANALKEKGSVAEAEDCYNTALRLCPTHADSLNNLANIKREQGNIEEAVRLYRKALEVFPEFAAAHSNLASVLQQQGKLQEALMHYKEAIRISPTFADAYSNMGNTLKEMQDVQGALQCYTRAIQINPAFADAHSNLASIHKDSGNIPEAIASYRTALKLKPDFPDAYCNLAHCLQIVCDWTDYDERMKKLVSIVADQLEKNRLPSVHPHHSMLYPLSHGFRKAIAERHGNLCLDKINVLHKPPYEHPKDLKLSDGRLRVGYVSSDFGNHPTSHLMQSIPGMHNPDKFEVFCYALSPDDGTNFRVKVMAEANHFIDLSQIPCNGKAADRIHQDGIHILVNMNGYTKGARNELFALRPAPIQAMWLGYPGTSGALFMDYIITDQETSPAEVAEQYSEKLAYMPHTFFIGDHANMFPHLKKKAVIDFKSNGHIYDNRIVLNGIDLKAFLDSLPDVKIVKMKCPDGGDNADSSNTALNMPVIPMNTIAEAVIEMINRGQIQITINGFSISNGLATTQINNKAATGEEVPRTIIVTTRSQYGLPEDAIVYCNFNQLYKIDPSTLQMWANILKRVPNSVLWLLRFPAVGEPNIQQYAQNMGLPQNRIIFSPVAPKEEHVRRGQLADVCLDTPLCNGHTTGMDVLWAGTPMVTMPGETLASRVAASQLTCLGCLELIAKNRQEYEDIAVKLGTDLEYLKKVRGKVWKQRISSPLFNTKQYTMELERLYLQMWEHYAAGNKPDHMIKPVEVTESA
Method: Radiometric capture assay: Nucleoporin 62 (Nup62) was used as a model substrate. IC50 values of the both inhibitors were determined at range of 0 to 100 μM (eight point, duplicate). OGT antagonists were tested in a reaction mixture containing 18 μM Nup62, 6 μM UDP-^14C-GlcNAc, 100 nM ncOGT, and lx phosphate-buffered saline (1× PBS) (137 mM NaCl, 2.7 mM KCl, 10 mM Na2HPO4, and 1.8 mM KH2PO4, pH 7.4). The Nup62 glycosylation reactions were run for 15 min at 37° C. Reaction mixtures were subsequently quenched by spottinged on Whatman® Protran® nitrocellulose membrane, washed with 1× PBS three times for 15 minutes each. The membranes were air dried and then counted by liquid scintillation counting. The data were analyzed by Microsoft® Excel and Prism 6 (Graphpad®). Robust non-linear variable slope regressions were generated to determine the IC50 and Hill slope values.
In order to evaluate the mode of inhibition of OSMI-1 and UDP-5S-GlcNAc, a series of experiments, as outlined above, were performed with Nup62 as glycosylation substrate. The inhibition test of OSMI-1 was performed by varying the UDP-^14C-GlcNAc concentration from 0 to 0.25 mM while holding concentration of Nup62 constant at 10 μM with four different concentrations of OSMI-1 (0 to 2 μM) in 1× PBS with 100 nM ncOGT and with fixed and saturating concentrations of GST-Nup62 acceptor. The inhibition test of UDP-5S-GlcNAc was performed by varying the UDP-^14C-GlcNAc concentration from 0 to 1 mM while holding concentration of Nup62 constant at 10 μM with five different concentrations of UDP-5S-GlcNAc (0, 1, 5, 10, and 15 μM) in 1× PBS with 100 nM ncOGT. Each reaction was spotted on Whatman® grade P81 ion exchange chromatography paper circles, washed with 1× PBS three times for 15 minutes each. The membranes were air dried and then counted by liquid scintillation counting. Each assay was duplicated in parallel. The data were analyzed by Microsoft® Excel and Prism 6 (Graphpad®). The Michaelis-Menten plots and Ki of both inhibitors calculated under non-linear regression with competitive inhibition mode are shown in FIG. 5.

OGT in CHO cells = experiment: Immunoblotting of global O-GlcNAcylation (RL2) in CHO cells; type: cell-based, Chinese hamster; conditions: 24 hours, up to 50 μM
Method: In vivo inhibition of glycosylation: For all immunoblotting experiments, CHO-K1 (CHO) cells were grown in F12-K media supplemented with 10% FBS and antibiotics at 37° C. in a 5% CO2 incubator. Cells were treated by adding indicated inhibitor in DMSO vehicle (0.5% final vehicle concentration) upon reaching 70% confluence. After indicated treatment length, cells were harvested by aspirating growth media and washing with ice cold 1× PBS. Cells were subsequently lysed in boiling 1% SDS/20 mM HEPES 7.9. After cooling to room temperature, 1 mM PMSF, 10 μM PUGNAC, 10 μM TMG and 1× Complete protease inhibitor cocktail were added to the solution. The mixture was sonicated and then subjected to a 5 minute incubation at 95° C. The samples were centrifuged for 15 minutes at 20,000×g and the supernatant was collected and the total protein was measured by BCA assay (BIO-RAD).
The sample was separated by SDS-PAGE (Bio-Rad 4-15%, Cat: 345-0028), transferred to a nitrocellulose membrane (iBlot, Invitrogen) and probed with the indicated antibody. Tyipcally, membranes were blocked with 4% BSA in 1× TBS+0.04% tween-20 for 1 hour before incubating with antibody (typically diluted 1:1000 in 4% BSA inlx TBS+0.04% tween-20) overnight at 4° C. Membranes were then washed three times with 1× TBS+0.04% tween-20 and incubated with secondary antibody (typically diluted 1:5000 in 4% BSA in 1× TBS+0.04% tween-20) for 1 hour at room temperature. Lastly, membranes were washed 3× with 1× TBS+0.04% tween-20 and imaged with ECL. D283-Med cells were treated as above but grown in F12-K media supplemented with 10% FBS and antibiotics. HEK, HeLa and LNCaP cells were treated as above but grown in RPMI media supplemented with 10% FBS and antibiotics.

CHO cells = experiment: ApoTox-Glo cell viability, cytotoxicity and apoptosis signaling assay; type: cell-based, Chinese hamster
Method: Cell viability, cytotoxicity and apoptosis signaling assays were performed in a 96-well plate using ApoTox-Glo reagent (Promega) according to the manufacturer's instructions.

[1] = target: T3, full length human OGT (ncOGT) (Homo sapiens, UniProt O15294); experiment: UDP-Glo luminescence-based coupled enzyme assay; type: biochemical; conditions: 40 μM UDP-GlcNAc, 125 μM CKII3K peptide; read-out: IC50 against ncOGT, coupled enzyme assay
T3 construct: made in house
T3 sequence (O15294 1-1046): T2 sequence (O15294 1-1046)
Method: UDP-Glo assay: Materials for this assay were obtained from Promega (catalog #V6961), and the experiment was performed largely as outlined by the manufacturer. IC50 values were determined in the range of 0 to 100 μM (eleven concentration points). Assays were performed either in white, 96-well or ½-volume 96-well, plates. This assay was run with 125 μM CKII3K peptide acceptor. Reaction volumes were between 14 (half volume plates) and 20 (normal volume plates) μL. Reactions contained the following components: 300 nM ncOGT, 125 μM CKII3K and 40 μM UDP-GlcNAc in 1× PBS pH 7.4 supplemented with 1 mM THP. Reactions were incubated for one hour at 25° C. and quenched by the addition of an equal volume of UDP-Glo nucleotide detection reagent, prepared and used according to manufacturer guidelines. The quenched reactions were then mixed briefly by shaking at 1800 rpm in a Thermomixer C, and incubated for one hour at room temperature prior to reading luminescence, as per the manufacturers guidelines. Data were analyzed by Microsoft Excel and Prism 6 (Graphpad). When evaluating the effect of sugar donor concentration, this parameter was varied, while all other conditions remained as described above. Each sample in this case was run in duplicate, unless otherwise specified. The 40 μM curve in FIG. 16C has each point in quadruplicate. Similarly, there is an n=9 for each point in the OSMI-1 curve in FIG. 16B.

Work on `O=C([C@H](NS(=O)(=O)c1ccc2[nH]c(=O)ccc2c1)c1ccccc1)N1CCC(Cc2ccccc2)CC1` yielded a Ki (sOGT) of 2000 nM.
`CC(C)N(Cc1ccccc1)C(=O)[C@H](NS(=O)(=O)c1ccc2[nH]c(=O)ccc2c1)c1ccccc1` was tested, and the IC50 (sOGT) was 7 µM.
In the case of `O=C([C@@H](Cc1ccccc1)NS(=O)(=O)c1ccc2[nH]c(=O)ccc2c1)N(Cc1ccco1)Cc1cccs1` [PG34, (R)—N-(furan-2-ylmethyl)-2-(2-oxo-1,2-dihydroquinoline-6-sulfonamido)-3-phenyl-N-(thiophen-2-ylmethyl)propanamide], the “In vitro inhibitory activity against OGT” value (ncOGT; radiometric capture assay) is reported as “poor in vitro inhibitory activity against OGT”, the “Effect on global O-GlcNAcylation” value (OGT in CHO cells) is reported as “no reduction in global O-GlcNAc levels” and the “Effect on cell viability” value (CHO cells) is reported as “affected cell viability similarly to OSMI-1”. The Apoptotic signaling (CHO cells; up to 50 μM) was “Neither compound displayed an effect on apoptotic signaling”.
`O=C([C@H](NS(=O)(=O)c1ccc2[nH]c(=O)ccc2c1)c1ccccc1)N1CCN(c2ccccn2)CC1` gave an IC50 (sOGT) of 10 µM.
With `CC(=O)N[C@@H]1C(OP(=O)(O)OP(=O)(O)OC[C@H]2O[C@@H](n3ccc(=O)[nH]c3=O)[C@H](O)[C@@H]2O)SC(CO)C(O)[C@@H]1O` (some centres unmarked) [UDP-5SGlcNAc, reference compound] the IC50 (ncOGT; 6 μM UDP-GlcNAc, 18 μM GST-Nup62) was 11 µM and 11.1 µM, the Ki (ncOGT; non-linear regression, competitive inhibition fit, Nup62 substrate, read-out: Inhibition constant (Ki)) was 5 µM and the IC50 [1] was 78.8 µM.
`Cc1ccc(N2CCN(C(=O)[C@H](NS(=O)(=O)c3ccc4[nH]c(=O)ccc4c3)c3ccccc3)CC2)cc1` was tested, and the IC50 (sOGT) was 9 µM.
